# Several values for one entry are separate records, joined by “and”; a condition that tells them apart may be missing. Equal values may be shown once. ± gives the expanded uncertainty stated by the source.
# Settings: Closed cell (Static) method
smiles,measurement,setting,value
c1ccc2ccccc2c1 [naphthalene],vapor or sublimation pressure,"276.72 K, Crystal",0.001118 ± 0.00012 kPa
same,vapor or sublimation pressure,"276.73 K, Crystal",0.001122 ± 0.00012 kPa
same,vapor or sublimation pressure,"276.74 K, Crystal",0.001118 ± 0.00012 kPa
same,vapor or sublimation pressure,"280.12 K, Crystal",0.001625 ± 0.00013 kPa
same,vapor or sublimation pressure,"280.15 K, Crystal",0.001634 ± 0.00013 kPa
same,vapor or sublimation pressure,"280.17 K, Crystal",0.001644 ± 0.00013 kPa
same,vapor or sublimation pressure,"283.27 K, Crystal",0.002321 ± 0.00015 kPa and 0.002329 ± 0.00015 kPa and 0.002333 ± 0.00015 kPa
same,vapor or sublimation pressure,"286.33 K, Crystal",0.003264 ± 0.00017 kPa and 0.003275 ± 0.00017 kPa
same,vapor or sublimation pressure,"286.34 K, Crystal",0.003276 ± 0.00017 kPa
same,vapor or sublimation pressure,"289.39 K, Crystal",0.004482 ± 0.00021 kPa and 0.004484 ± 0.00021 kPa and 0.004493 ± 0.00021 kPa
same,vapor or sublimation pressure,"292 K, Crystal",0.005885 ± 0.00026 kPa and 0.005899 ± 0.00026 kPa and 0.005902 ± 0.00026 kPa
same,vapor or sublimation pressure,"292.04 K, Crystal",0.005878 ± 0.00026 kPa
same,vapor or sublimation pressure,"292.05 K, Crystal",0.005881 ± 0.00026 kPa and 0.005889 ± 0.00026 kPa
same,vapor or sublimation pressure,"293.36 K, Crystal",0.006861 ± 0.00029 kPa
same,vapor or sublimation pressure,"293.38 K, Crystal",0.006881 ± 0.00029 kPa
same,vapor or sublimation pressure,"293.4 K, Crystal",0.006871 ± 0.00029 kPa
same,vapor or sublimation pressure,"294.91 K, Crystal",0.007907 ± 0.00033 kPa
same,vapor or sublimation pressure,"294.94 K, Crystal",0.007905 ± 0.00033 kPa
same,vapor or sublimation pressure,"294.96 K, Crystal",0.007922 ± 0.00033 kPa
same,vapor or sublimation pressure,"296.91 K, Crystal",0.009768 ± 0.0004 kPa and 0.009773 ± 0.0004 kPa
same,vapor or sublimation pressure,"296.92 K, Crystal",0.009786 ± 0.0004 kPa
same,vapor or sublimation pressure,"297.67 K, Crystal",0.01039 ± 0.00042 kPa and 0.0104 ± 0.00042 kPa
same,vapor or sublimation pressure,"297.68 K, Crystal",0.01041 ± 0.00042 kPa
same,vapor or sublimation pressure,"300.93 K, Crystal",0.01426 ± 0.00053 kPa
same,vapor or sublimation pressure,"300.95 K, Crystal",0.01427 ± 0.00053 kPa and 0.01428 ± 0.00053 kPa
same,vapor or sublimation pressure,"302.6 K, Crystal",0.01691 ± 0.00057 kPa and 0.01696 ± 0.00057 kPa
same,vapor or sublimation pressure,"303.67 K, Crystal",0.01833 ± 0.0006 kPa and 0.01835 ± 0.0006 kPa
same,vapor or sublimation pressure,"306.52 K, Crystal",0.02413 ± 0.00069 kPa
same,vapor or sublimation pressure,"306.6 K, Crystal",0.02433 ± 0.0007 kPa
same,vapor or sublimation pressure,"306.65 K, Crystal",0.02446 ± 0.0007 kPa
same,vapor or sublimation pressure,"308.22 K, Crystal",0.02835 ± 0.00076 kPa and 0.02834 ± 0.00076 kPa
same,vapor or sublimation pressure,"312.83 K, Crystal",0.04277 ± 0.001 kPa
same,vapor or sublimation pressure,"312.84 K, Crystal",0.04281 ± 0.001 kPa
same,vapor or sublimation pressure,"312.85 K, Crystal",0.04282 ± 0.001 kPa
same,vapor or sublimation pressure,"313.85 K, Crystal",0.04691 ± 0.0011 kPa
same,vapor or sublimation pressure,"315.09 K, Crystal",0.05173 ± 0.0012 kPa and 0.05174 ± 0.0012 kPa
same,vapor or sublimation pressure,"317.19 K, Crystal",0.06259 ± 0.0014 kPa and 0.06261 ± 0.0014 kPa and 0.06262 ± 0.0014 kPa
same,vapor or sublimation pressure,"319.43 K, Crystal",0.07588 ± 0.0016 kPa and 0.07592 ± 0.0016 kPa
same,vapor or sublimation pressure,"324.1 K, Crystal",0.1124 ± 0.0022 kPa
same,vapor or sublimation pressure,"324.99 K, Crystal",0.1206 ± 0.0024 kPa
same,vapor or sublimation pressure,"325 K, Crystal",0.1206 ± 0.0024 kPa
same,vapor or sublimation pressure,"325.01 K, Crystal",0.1206 ± 0.0024 kPa
same,vapor or sublimation pressure,"326.36 K, Crystal",0.1338 ± 0.0023 kPa
same,vapor or sublimation pressure,"326.37 K, Crystal",0.1338 ± 0.0023 kPa
same,vapor or sublimation pressure,"328.22 K, Crystal",0.1567 ± 0.0026 kPa
same,vapor or sublimation pressure,"330.59 K, Crystal",0.1886 ± 0.003 kPa
same,vapor or sublimation pressure,"330.6 K, Crystal",0.1887 ± 0.003 kPa
same,vapor or sublimation pressure,"335.27 K, Crystal",0.2723 ± 0.004 kPa
same,vapor or sublimation pressure,"335.28 K, Crystal",0.2726 ± 0.004 kPa
same,vapor or sublimation pressure,"335.31 K, Crystal",0.2732 ± 0.004 kPa
same,vapor or sublimation pressure,"336.07 K, Crystal",0.288 ± 0.0042 kPa and 0.2881 ± 0.0042 kPa
same,vapor or sublimation pressure,"337.45 K, Crystal",0.3184 ± 0.0046 kPa
same,vapor or sublimation pressure,"337.46 K, Crystal",0.3185 ± 0.0046 kPa
same,vapor or sublimation pressure,"339.09 K, Crystal",0.3626 ± 0.0051 kPa and 0.3628 ± 0.0051 kPa and 0.3624 ± 0.0051 kPa
same,vapor or sublimation pressure,"341.45 K, Crystal",0.4305 ± 0.0059 kPa
same,vapor or sublimation pressure,"341.46 K, Crystal",0.4306 ± 0.0059 kPa
same,vapor or sublimation pressure,"346.83 K, Crystal",0.6347 ± 0.0084 kPa
same,vapor or sublimation pressure,"346.84 K, Crystal",0.6347 ± 0.0084 kPa
same,vapor or sublimation pressure,"348.58 K, Crystal",0.7143 ± 0.0094 kPa and 0.7145 ± 0.0094 kPa and 0.7148 ± 0.0094 kPa
same,vapor or sublimation pressure,"352.18 K, Crystal",0.9195 ± 0.012 kPa and 0.9196 ± 0.012 kPa
same,vapor or sublimation pressure,"355.35 K, Liquid",1.098 ± 0.014 kPa
same,vapor or sublimation pressure,"358.34 K, Liquid",1.266 ± 0.016 kPa
same,vapor or sublimation pressure,"358.36 K, Liquid",1.267 ± 0.016 kPa
same,vapor or sublimation pressure,"358.38 K, Liquid",1.269 ± 0.016 kPa

# Source: the NIST ThermoML archive (doi:10.1021/acs.jced.6b00523)
